Laboratory results as given in the supplement of paper PMC10307832.

Tests used:
Test in all cases: relative viability (nuclei count vs DMSO), 5 days (fraction); higher = more cells survive
[1] = compound: CN1C=C(C2=CC=CC=C21)/C=C\3/C4=C(C=CC=N4)NC3=O + O=C(c1cc(Cc2n[nH]c(=O)c3ccccc23)ccc1F)N1CCN(C(=O)C2CC2)CC1 [Olaparib] (partner 8 µM)
In short: (§1)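 Relative viability equals treated-well nuclei counts divided by vehicle-well nuclei counts. Counts came from 4× images of lung cancer cell lines grown in 1536-well plates for 5 days after pin-tool dosing on the day after seeding. Dosing used one drug alone or a fixed anchor-drug dose plus five library-drug doses (not always all listed) in √10 steps, and values are medians of duplicate plates.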

[2] = compound: CN1C=C(C2=CC=CC=C21)/C=C\3/C4=C(C=CC=N4)NC3=O + CC(=O)c1c(C)c2cnc(Nc3ccc(N4CCNCC4)cn3)nc2n(C2CCCC2)c1=O [Palbociclib] (partner 0.5 µM)
In short: as §1

Trametinib + Crizotinib = compound: CC(=O)Nc1cccc(-n2c(=O)n(C3CC3)c(=O)c3c(Nc4ccc(I)cc4F)n(C)c(=O)c(C)c32)c1 [Trametinib] + C[C@@H](Oc1cc(-c2cnn(C3CCNCC3)c2)cnc1N)c1c(Cl)ccc(F)c1Cl [Crizotinib] (partner 1 µM)
In short: as §1

[3] = compound: CN1C=C(C2=CC=CC=C21)/C=C\3/C4=C(C=CC=N4)NC3=O + Cc1nc(Nc2ncc(C(=O)Nc3c(C)cccc3Cl)s2)cc(N2CCN(CCO)CC2)n1 [Dasatinib] (partner 0.075 µM)
In short: as §1

Cell Line	relative viability ([1]; first compound 0.02 µM)	relative viability ([1]; first compound 0.06325 µM)	relative viability ([1]; first compound 0.2 µM)	relative viability ([1]; first compound 0.6325 µM)	relative viability ([1]; first compound 2 µM)	relative viability ([2]; first compound 0.02 µM)	relative viability ([2]; first compound 0.06325 µM)	relative viability ([2]; first compound 0.2 µM)	relative viability ([2]; first compound 0.6325 µM)	relative viability ([2]; first compound 2 µM)	relative viability (Trametinib + Crizotinib; first compound 0.0025 µM)	relative viability (Trametinib + Crizotinib; first compound 0.007906 µM)	relative viability (Trametinib + Crizotinib; first compound 0.025 µM)	relative viability (Trametinib + Crizotinib; first compound 0.07906 µM)	relative viability (Trametinib + Crizotinib; first compound 0.25 µM)	relative viability ([3]; first compound 0.02 µM)	relative viability ([3]; first compound 0.06325 µM)	relative viability ([3]; first compound 0.2 µM)	relative viability ([3]; first compound 0.6325 µM)	relative viability ([3]; first compound 2 µM)
201T	0.821	0.781	0.868	0.931	0.87	0.321	0.359	0.377	0.35	0.323	1.05	1.01	0.859	0.872	0.799	0.587	0.533	0.504	0.531	0.413
A549	0.325	0.352		0.278	0.355						0.64	0.44	0.394	0.181	0.074					
A-427	0.708	0.606		0.71	0.76	0.577	0.492		0.514	0.572	0.924	0.757	0.659	0.658	0.502	0.696	0.664		0.644	0.86
ABC-1	0.976	0.745	0.612	0.826	0.86	0.52	0.76	0.789	0.593	0.738	0.99	1.03	0.972	1.07	0.634	0.484	0.424	0.53	0.562	0.56
BEN	1.01	0.91	0.885	1.14	1.24	0.453	0.409	0.465	0.48	0.49	0.794	0.825		0.717	0.81	0.263	0.275		0.259	0.314
CAL-12T	0.729	0.587	0.617	0.75	0.625	0.501	0.411	0.411	0.419	0.499	0.651	0.853	0.434	0.367	0.213	0.501	0.302	0.347	0.285	0.273
COR-L23	0.349	0.289	0.274	0.283	0.312	0.314	0.292	0.28	0.237	0.299	0.66	0.682	0.665	0.425	0.337	0.551	0.449	0.494	0.51	0.529
COR-L 105	0.522	0.459	0.478	0.585	0.967	0.428	0.418	0.419	0.373	0.497	0.729	0.605	0.374	0.329	0.285	0.306	0.298	0.273	0.34	0.367
Calu-6	0.504	0.528	0.569	0.488	0.787						0.737	0.557	0.398	0.168	0.107					
ChaGo-K-1	0.426	0.405	0.414	0.387	0.339	0.922	0.936	0.853	0.89	0.909	1.13	1.07	1.1	1.01	0.761	0.477	0.544	0.418	0.587	0.576
EBC-1	0.728	0.68	0.623	0.625	0.585						0.196	0.181	0.187	0.159	0.162					
EKVX	0.892			0.8	0.717	0.323			0.273	0.732	0.779	0.778	0.765	0.564	0.4	0.411	0.427	0.464	0.449	0.358
EMC-BAC-2	0.354	0.445	0.488	0.418	0.383	0.471	0.513	0.504	0.521	0.535	0.755	0.782	0.765	0.732	0.482	0.356	0.323	0.32	0.332	0.407
EPLC-272H	1.16	0.706	0.712		0.682	0.331	0.271		0.336	0.274	0.825	0.672	0.538	0.599	0.377	0.344	0.41	0.237		0.355
H3255	0.64	0.554	0.55	0.606	0.602	0.33	0.327	0.309	0.317	0.296	0.845	0.931	0.799	0.715	0.48	0.438	0.349	0.323	0.324	0.322
HARA	0.247	0.747		0.726	0.794	0.257	0.297	0.192	0.257	0.227	0.9	0.907	0.807	0.638	0.336	0.313	0.265		0.254	0.244
HCC-15	0.716	0.679	0.733	0.713	0.837	0.708	0.733	0.724	0.685	0.746	0.658	0.53	0.415	0.259	0.187	0.53	0.577	0.565	0.544	0.496
HCC-44	0.908	0.954	1.02	0.997	0.942	0.902	0.959	0.956	0.934	0.913	0.853	0.916	0.763	0.728	0.526					
HCC-78	0.78	0.773	0.688	0.754	0.818	0.356	0.426	0.364	0.48	0.437	0.318	0.275	0.252	0.285	0.215	0.317	0.578		0.34	0.37
HCC-366	0.315	0.287	0.36	0.372	0.288	0.239	0.281	0.338	0.397	0.304	0.446	0.425	0.34	0.246	0.0629	0.641	0.455	0.44	0.593	0.468

Cell Line	relative viability ([1]; first compound 0.02 µM)	relative viability ([1]; first compound 0.06325 µM)	relative viability ([1]; first compound 0.2 µM)	relative viability ([1]; first compound 0.6325 µM)	relative viability ([1]; first compound 2 µM)	relative viability ([2]; first compound 0.02 µM)	relative viability ([2]; first compound 0.06325 µM)	relative viability ([2]; first compound 0.2 µM)	relative viability ([2]; first compound 0.6325 µM)	relative viability ([2]; first compound 2 µM)	relative viability (Trametinib + Crizotinib; first compound 0.0025 µM)	relative viability (Trametinib + Crizotinib; first compound 0.007906 µM)	relative viability (Trametinib + Crizotinib; first compound 0.025 µM)	relative viability (Trametinib + Crizotinib; first compound 0.07906 µM)	relative viability (Trametinib + Crizotinib; first compound 0.25 µM)	relative viability ([3]; first compound 0.02 µM)	relative viability ([3]; first compound 0.06325 µM)	relative viability ([3]; first compound 0.2 µM)	relative viability ([3]; first compound 0.6325 µM)	relative viability ([3]; first compound 2 µM)
HCC-827	0.624	0.61		0.638	0.764	0.444	0.462		0.475	0.5	0.931	0.946	0.889	0.859	0.532	0.296	0.354		0.28	0.427
HOP-62	0.537	0.509		0.968	0.629	0.438	0.415		0.449	0.483	0.925	0.932	0.581	0.502	0.209	0.683	0.709	0.592	0.599	0.648
IA-LM	0.726	0.726	0.749	0.896	0.802						0.771	0.407	0.16	0.141	0.112					
LC-2-ad	0.658	0.705	0.722	0.72	0.663	0.527	0.468	0.506	0.462	0.47	0.47	0.463	0.422		0.294	0.572	0.482	0.45	0.597	0.515
LCLC-97TM1		0.348	0.309	0.314	0.289		0.156	0.201	0.203	0.261	0.482	0.573	0.271	0.281	0.147	0.529	0.76	0.876	0.968	0.882
LCLC-103H	0.764	0.727	0.801	0.825	0.808	0.493	0.411	0.479	0.471	0.472	0.938	1.07	0.799	0.756	0.76	0.516	0.355	0.481	0.417	0.478
LK-2	0.563	0.528		0.422	0.66	0.232	0.421	0.447	0.576	0.678	0.283	0.217	0.226	0.299	0.241				0.266	0.256
LOU-NH91	0.906	0.871	0.883	0.841	0.901	0.427	0.524	0.512	0.506	0.51	0.722	0.667	0.714	0.636	0.501	0.58	0.501	0.464	0.516	0.466
LU99A	0.253	0.24	0.274	0.21	0.278	0.374	0.417	0.393	0.381	0.432	0.554	0.489	0.473	0.368	0.214	0.67	0.457	0.437	0.669	0.612
NCI-H522	0.615	0.685	0.679	0.556	0.691	1.04	1.01	1.08	0.874	1.06						0.896	0.803	0.844	0.784	0.874
NCI-H596	0.545	0.744	0.648	0.558	0.554						0.8	0.824	0.757	0.721	0.597	0.481	0.582	0.469	0.628	0.48
NCI-H1299	0.96	0.97	1	1	0.952						0.951	0.926	0.869	0.848	0.521					
NCI-H1395	0.461	0.476	0.455	0.527	0.457	0.567	0.534	0.581	0.618	0.581						0.399	0.425	0.371	0.422	0.392
NCI-H1563											0.944	0.747	0.817	0.785	0.623	0.472	0.437	0.444	0.488	0.414
NCI-H1623																0.469	0.625	0.49	0.457	0.505
NCI-H1648	1.26	1.01	1.02	0.74	0.496	0.308	0.305	0.233	0.285	0.28										
NCI-H1703	0.377	0.513	0.419	0.401	0.421							0.495	0.66	0.727	0.423					
NCI-H1793	0.678	0.813	0.72	0.817	0.63	0.322	0.39	0.285	0.275	0.296						0.429	0.341	0.337	0.353	0.381
NCI-H2342	0.49	0.449	0.47	0.453	0.461	0.552	0.557	0.519	0.537	0.485						0.316	0.313	0.284	0.304	0.318
SW 900	0.463			0.768	0.655	0.428			0.542	0.563						0.495	0.585		0.537	0.481
